Reference: patent US4409239A, “Propylene glycol diester solutions of PGE-type compounds” (Syntex (U.S.A.) Inc., priority 1982, dated 1983)

Experiments:
[1] = Stability in peanut oil, USP on storage (comparison); format: physicochemical; conditions: 2 weeks storage at 60° C., 50 mcg per ml peanut oil, 20160 min
[2] = Stability of an E-type prostaglandin in propylene glycol dicaprylate/dicaprate (Captex 200) on storage; format: physicochemical; conditions: for % Remaining of Initial Drug Concentration: 0.25 mg/ml in Captex 200, sealed glass ampules
Description: A solution of 0.25 mg (dl)-9-keto-11α,15α-dihydroxy-16-phenoxy-17,18,19,20-tetranorprosta-4,5,13-trans-trienoic acid methyl ester per ml in propylene glycol dicaprylate/dicaprate (Captex 200) was made by dissolving said compound in the solvent with the aid of a magnetic stirrer. Aliquots of this solution were filled into glass ampules and sealed. The ampules were then stored at various temperatures for various durations.

## COC(=O)CCC=C=CCC1C(=O)CC(O)C1C=CC(O)COc1ccccc1 (stereo not drawn) [(dl)-9-keto-11α,15α-dihydroxy-16-phenoxy-17,18,19,20-tetranorprosta-4,5,13-trans-trienoic acid methyl ester]
[1]
  drug remaining: 77.8%
[2]; 0 month, 45° C.
  % Remaining of Initial Drug Concentration: 100%
[2]; 0 month, 60° C.
  % Remaining of Initial Drug Concentration: 100%
[2]; 1 month, 60° C., 43800 min
  % Remaining of Initial Drug Concentration: 97.6%
[2]; 3 months, 45° C., 131400 min
  % Remaining of Initial Drug Concentration: 100.7%
[2]; 3 months, 60° C., 131400 min
  % Remaining of Initial Drug Concentration: 90.0%
[2]; storage at 45° C. and 60° C., 0.25 mg/ml in Captex 200
  stability in Captex 200 (in words): quite stable
